{"source": "patent EP0977036A1", "about": "“METHOD FOR ASSAYING AGALACTO-IgG AND ASSAY KITS, PO[…] LECTINS, AND DNAS ENCODING THE SAME” (SEIKAGAKU CORPORATION, priority 1996, dated 1998)", "test_system": "PVL", "assay": "Influence of various monosaccharides on the agalacto-IgG assay system (PVL immobilized on plate, peroxidase-labeled anti-human IgG antibody)", "type": "binding, Psathyrella velutina", "details": "50 mM monosaccharide added to agalacto-IgG standard solution (2.5 µg/ml); value without monosaccharide defined as 100%", "protocol": "PVL purified in Example 1 or commercially available PVL was diluted to 20 µg/ml in 0.1 M carbonate buffer containing 10% glycerol (pH 8.5 to 9), and 50 µl of this solution (1 µg/well) was added to each well of a Nunc immunoplate (trade name; Maxisorp, Nunc), and left at 4°C for 16 hours to uniformly coat each well.\nThis plate was washed twice with PBS(-), and PBS(-) solution containing 3% bovine serum albumin (BSA, sold by Seikagaku Corporation) was added as a blocking agent, and left stand at room temperature for two hours to coat the portions of the wells on which PVL was not immobilized.\nThen, the plate was washed three times with a washing solution (PBS(-) containing 0.05% Tween 20), and 50 µl each of standard solutions at various concentrations (0.125 to 2 µg/ml) of the agalacto-IgG purified in Preparation Example 1 was added, and left stand at 37°C for 60 minutes for reaction. As the solvent of the agalacto-IgG standard solutions, PBS(-) containing 1% BSA and 0.05% Tween 20 (referred to as \"reaction diluent\" hereinafter) was used. […]\nAfter the color development, 50 µl of 1 N HCl was added to the plate to terminate the reaction, and absorbance at a wavelength of 450 nm of the solution colored by the decomposition of TMB was measured (reference wavelength: 630 nm, A450/630) by Well Reader SK601 (sold by Seikagaku Corporation). […]"}
{"compound": "CC(=O)N[C@H]1C(O)O[C@H](CO)[C@@H](O)[C@@H]1O", "note": "(stereo partly shown) [GlcNAc, N-acetylglucosamine]", "values": [{"measurement": "inhibition", "value": "about 50%"}]}
